{"source": "paper PMC2722925", "about": "(Biochemistry, 2008)", "key": {"[1]": {"molecular_target": "T1, EPPasePGM (Bombyx mori, UniProt Q7YTB0)", "T1 sequence (Q7YTB0 69-330 isoform Q7YTB0-1)": "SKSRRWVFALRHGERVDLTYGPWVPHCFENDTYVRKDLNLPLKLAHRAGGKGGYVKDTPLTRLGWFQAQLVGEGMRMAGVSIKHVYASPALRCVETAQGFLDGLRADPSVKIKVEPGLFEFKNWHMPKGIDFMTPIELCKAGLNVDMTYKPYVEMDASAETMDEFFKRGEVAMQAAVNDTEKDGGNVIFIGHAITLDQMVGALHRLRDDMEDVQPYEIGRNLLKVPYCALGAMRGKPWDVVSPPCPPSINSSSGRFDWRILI", "assay": "Inhibition of EPPasePGM pNPP hydrolysis", "type": "biochemical"}, "[2]": {"molecular_target": "T2, EPPasePGM (EPPase PGM domain, residues 69 to 330) (Bombyx mori, UniProt Q7YTB0)", "T2 sequence (Q7YTB0 69-330 isoform Q7YTB0-1)": "T1 sequence (Q7YTB0 69-330 isoform Q7YTB0-1)", "assay": "Phosphatase activity", "conditions": "for Km: substrate of wild-type EPPasePGM; for Km / kcat: pH 7.5, 37 °C; for kcat: substrate turnover by wild-type EPPasePGM, 50 nM enzyme; for Dephosphorylation by EPPasePGM (substrate specificity): 50 nM EPPasePGM, 1 mM compound, pH 7.5, pNPP as positive control, data not shown"}, "[3]": {"molecular_target": "T3, EPPasePGM K292S (Bombyx mori, UniProt Q7YTB0, K622S)", "T3 sequence (Q7YTB0 399-660 K622S)": "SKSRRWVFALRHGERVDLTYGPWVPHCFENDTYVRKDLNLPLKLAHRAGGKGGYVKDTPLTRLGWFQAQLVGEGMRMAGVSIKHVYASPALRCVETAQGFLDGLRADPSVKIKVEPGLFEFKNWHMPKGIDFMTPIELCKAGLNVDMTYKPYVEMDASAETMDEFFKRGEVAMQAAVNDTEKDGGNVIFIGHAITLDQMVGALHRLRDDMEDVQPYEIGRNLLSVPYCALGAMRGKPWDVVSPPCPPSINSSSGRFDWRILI", "type": "biochemical"}, "[4]": {"molecular_target": "Sts-1PGM (Mus musculus, UniProt Q8BGG7)", "sequence (Q8BGG7 369-638 limits assumed)": "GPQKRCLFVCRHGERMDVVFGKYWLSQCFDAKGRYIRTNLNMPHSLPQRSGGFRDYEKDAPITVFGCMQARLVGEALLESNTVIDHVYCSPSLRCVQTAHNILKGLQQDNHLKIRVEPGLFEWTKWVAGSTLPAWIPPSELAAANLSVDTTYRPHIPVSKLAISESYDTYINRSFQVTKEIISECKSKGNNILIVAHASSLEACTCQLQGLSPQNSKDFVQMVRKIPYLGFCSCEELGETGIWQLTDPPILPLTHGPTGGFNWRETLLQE", "assay": "Phosphatase activity", "type": "biochemical", "conditions": "for Km: substrate of Sts-1PGM; for kcat: substrate turnover by Sts-1PGM"}, "[5]": {"molecular_target": "EPPasePGM K196S (Bombyx mori, UniProt Q7YTB0, K526S)", "sequence (Q7YTB0 399-660 K526S)": "as the sequence (Q7YTB0 399-660 K622S) above, with K128S, S224K counted along it", "type": "biochemical"}, "[6]": {"molecular_target": "T3, EPPasePGM K292S", "assay": "biochemical"}, "[7]": {"system": "EPPase", "assay": "Phosphatase activity of native or recombinant full-length EPPase", "type": "biochemical, Bombyx mori", "conditions": "E22P versus pTyr-peptide"}, "[8]": {"system": "EPPase", "conditions": "native or recombinant full-length EPPase; ref [9]; cited from earlier work"}, "[9]": {"molecular_target": "EPPasePGM K196D (Bombyx mori, UniProt Q7YTB0, K526D)", "sequence (Q7YTB0 399-660 K526D)": "as the sequence (Q7YTB0 399-660 K622S) above, with K128D, S224K counted along it", "assay": "Phosphatase activity of EPPasePGM K196D mutant", "type": "biochemical"}, "[10]": {"conditions": "IC50, 1 mM pNPP, 50 nM EPPasePGM, 37 °C, pH 7.5"}, "[11]": {"conditions": "IC50, 1 mM pNPP, 50 nM EPPasePGM, 37 °C, text values in mM"}}, "note": "Where “and” joins values, the source holds several entries; their conditions need not be identical. Equal values may be shown once. Read-outs that look alike come from different tables or passages of the source.", "data": [{"smiles": "O=P(O)(O)O", "note": "[Phosphate]", "values": [{"measurement": "Ki", "setting": "[1]", "result": 25800, "unit": "µM"}, {"measurement": "IC50", "setting": "[1]; [10]", "result": 47.1, "unit": "mM"}, {"measurement": "IC50", "setting": "[1]; [11]", "result": "47 ± 11", "unit": "mM"}]}, {"smiles": "C[C@]12C=CC(=O)C=C1CC[C@@H]1[C@@H]2[C@@H](O)C[C@@]2(C)[C@H]1CC[C@]2(O)C(=O)COP(=O)([O-])[O-].[Na+].[Na+]", "note": "[Prednisolone 21P, prednisolone 21-phosphate disodium salt]", "values": [{"measurement": "Km", "setting": "[2]", "result": "650 ± 170", "unit": "µM"}, {"measurement": "kcat", "setting": "[2]", "result": 5.9, "unit": "s⁻¹"}, {"measurement": "Km", "setting": "[3]", "result": "510 ± 230", "unit": "µM"}, {"measurement": "kcat", "setting": "[3]", "result": 4.2, "unit": "s⁻¹"}, {"measurement": "Km", "setting": "[4]", "result": "450 ± 90", "unit": "µM"}, {"measurement": "kcat", "setting": "[4]", "result": 0.15, "unit": "s⁻¹"}, {"measurement": "Km", "setting": "[5]", "result": "1060 ± 240", "unit": "µM"}, {"measurement": "kcat", "setting": "[5]", "result": 6.1, "unit": "s⁻¹"}]}, {"smiles": "O=C(CO)[C@@H](O)[C@H](O)[C@H](O)COP(=O)(O)O", "note": "[fructose-6-phosphate]", "values": [{"measurement": "Dephosphorylation by EPPasePGM (substrate specificity)", "setting": "[2]", "result": "failed to dephosphorylate"}]}, {"smiles": "C[C@H]1C[C@H]2[C@@H]3CCC4=CC(=O)C=C[C@]4(C)[C@@]3(F)[C@@H](O)C[C@]2(C)[C@@]1(O)C(=O)COP(=O)([O-])[O-].[Na+].[Na+]", "note": "[β-Methasone 21P, β-methasone 21-phosphate disodium salt]", "values": [{"measurement": "Km", "setting": "[2]", "result": "730 ± 320", "unit": "µM"}, {"measurement": "kcat", "setting": "[2]", "result": 10.2, "unit": "s⁻¹"}]}, {"smiles": "[O]=[V]([OH])([OH])[OH]", "note": "[Vanadate]", "values": [{"measurement": "Ki", "setting": "[1]", "result": 1900, "unit": "µM"}, {"measurement": "IC50", "setting": "[1]; [10]", "result": 2.91, "unit": "mM"}, {"measurement": "IC50", "setting": "[1]; [11]", "result": "2.9 ± 0.43", "unit": "mM"}]}, {"smiles": "O=P(O)(O)OC[C@H]1O[C@@H](O)[C@H](O)[C@@H](O)[C@@H]1O", "note": "[β-glucose-6-phosphate]", "values": [{"measurement": "Dephosphorylation by EPPasePGM (substrate specificity)", "setting": "[2]", "result": "failed to dephosphorylate"}]}, {"smiles": "O=P(O)(O)OC(CO)CO", "note": "[β-phospho-glycerol]", "values": [{"measurement": "Dephosphorylation by EPPasePGM (substrate specificity)", "setting": "[2]", "result": "failed to dephosphorylate"}]}, {"smiles": "[O]=[W](=[O])([OH])[OH]", "note": "[Tungstate]", "values": [{"measurement": "IC50", "setting": "[1]", "result": 0.052, "unit": "mM"}, {"measurement": "Ki", "setting": "[1]", "result": 34, "unit": "µM"}, {"measurement": "IC50", "setting": "[6]", "result": 70, "unit": "µM"}]}, {"smiles": "C[C@H](C(CCC(C)(C)O)OP(=O)(O)O)[C@H]1CCC2(O)C3=CC(=O)[C@@H]4C[C@@H](O)[C@@H](O)C[C@]4(C)[C@H]3CC[C@]12C", "note": "(stereo partly drawn) [E22P, ecdysone 22-phosphate]", "values": [{"measurement": "kcat for E22P relative to pTyr-peptide (times lower)", "setting": "[7]", "result": 8}, {"measurement": "Km", "setting": "[8]", "result": 5.9, "unit": "µM"}, {"measurement": "kcat", "setting": "[8]", "result": 0.94, "unit": "s⁻¹"}]}, {"smiles": "O=C(O)[C@H](O)[C@@H](O)C(=O)O", "note": "[L-tartrate]", "values": [{"measurement": "Inhibition of pNPP hydrolysis by EPPasePGM", "setting": "[1]; concentrations as high as 100 mM", "result": "did not inhibit"}]}, {"smiles": "O=[N+]([O-])c1ccc(OP(=O)(O)O)cc1", "note": "[pNPP, para-nitrophenylphosphate]", "values": [{"measurement": "Km", "setting": "[9]", "result": "2500 ± 200", "unit": "µM"}, {"measurement": "kcat", "setting": "[9]", "result": 2.4, "unit": "s⁻¹"}, {"measurement": "kcat of EPPasePGM relative to Sts-1PGM (fold slower)", "setting": "[2]; pNPP hydrolysis", "result": 6}, {"measurement": "kcat/Km of EPPasePGM relative to Sts-1PGM (fold slower)", "setting": "[2]; pNPP hydrolysis", "result": 20}, {"measurement": "Km", "setting": "[2]", "result": "1900 ± 200", "unit": "µM"}, {"measurement": "kcat", "setting": "[2]", "result": "11.7 ± 0.6 s⁻¹ and 11.7 s⁻¹"}, {"measurement": "Km", "setting": "[3]", "result": "2400 ± 200", "unit": "µM"}, {"measurement": "kcat", "setting": "[3]", "result": 6.3, "unit": "s⁻¹"}, {"measurement": "Km", "setting": "[4]", "result": "500 ± 70", "unit": "µM"}, {"measurement": "kcat", "setting": "[4]", "result": 70.1, "unit": "s⁻¹"}, {"measurement": "Km", "setting": "[8]", "result": 13100, "unit": "µM"}, {"measurement": "kcat", "setting": "[8]", "result": 135, "unit": "s⁻¹"}, {"measurement": "Km", "setting": "[5]", "result": "2700 ± 160", "unit": "µM"}, {"measurement": "kcat", "setting": "[5]", "result": 5.0, "unit": "s⁻¹"}]}, {"smiles": "O=P(O)(O)OC[C@H]1O[C@@H](O)[C@H](O)[C@@H]1O", "note": "[β-ribose-5-phosphate]", "values": [{"measurement": "Dephosphorylation by EPPasePGM (substrate specificity)", "setting": "[2]", "result": "failed to dephosphorylate"}]}, {"smiles": "O=P(O)(O)Oc1cccc2ccccc12", "note": "[1-naphtyl phosphate]", "values": [{"measurement": "Dephosphorylation by EPPasePGM (substrate specificity)", "setting": "[2]", "result": "failed to dephosphorylate"}]}]}
